According to US8465921B2, “Hybridization and mismatch discrimination using oligonucleotides conjugated to minor groove binders” (Elitech Holding B.V., priority 1995, dated 2013):

Legend:
[1] = tested on: complementary oligonucleotide; experiment: Thermal denaturation of hybrids of ODNs and MGB-ODN conjugates with their complements (Table 6); format: binding; details: 2 μM ODN, 1:1 with complement; 140 mM KCl, 10 mM MgCl2, 20 mM HEPES-HCl (pH 7.2); 0.5° C./min
Description: Hybrids formed between MGB-oligonucleotide conjugates or unmodified oligonucleotides and their complements were melted at a rate of 0.5° C./min in 140 mM KCl, 10 mM MgCl2 and 20 mM HEPES-HCl (pH 7.2) on a Lambda 2S (Perkin Elmer) spectrophotometer with a PTP-6 automatic multicell temperature programmer. Each oligonucleotide (2 μM) was mixed with sufficient complementary oligonucleotide to give a 1:1 ratio. Prior to melting, samples were denatured at 100° C. and then cooled to the starting temperature over a 10 min period. The melting temperatures (Tm) of the hybrids were determined from the derivative maxima and collected in Table 6. In the “sequence” column of Table 6, MGB refers to the presence of CDPI3 conjugated through a hexylamine linker esterified to the 5′-phosphate group of the oligonucleotide (see FIG. 2).

[2] = tested on: E. coli supF gene contained in the plasmid pSP189; experiment: Hydrolyzable probe assay with ppG-substituted 15-mer probe (Example 3); format: biochemical; details: annealing/elongation at 75° C. (FIG. 6)
Description: Further increases in discriminatory ability of a MGB-oligonucleotide conjugate are obtained when the conjugate also contains a pyrazolo[3,4-d]pyrimidine nucleotide analogue. In this system, the target sequence is located in the E. coli supF gene contained in the plasmid pSP189 (FIG. 5, SEQ ID No.: 40). See Parris et al. (1992) Gene 117: 1-5. Binding sites for the primers used for amplification are indicated as Primer 1 and Primer 2, with Primer 1 having a sequence and polarity that is identical to that shown in FIG. 5, and Primer 2 having a sequence and polarity that is the reverse complement to that shown in FIG. 5. A 15-mer probe, labeled with fluorescein at the 5′-end, and with TAMRA and CDPI3 at the 3′-end, was designed to be complementary to a region within the approximately 375 nucleotides between the primers, as indicated in FIG. 5. This probe was tested using a series of templates, each containing a different single-nucleotide mismatch with the probe sequence, as shown in FIG. 5 and described infra.
The 15-nucleotide region of the template that is complementary to the probe used in this study was modified to generate a series of point mutations, as shown in FIG. 5. Each of the mutant templates was used in a separate assay with the 15-mer probe. The mutant sequences within this region of the template were as follows, with the mismatched nucleotide indicated by bold underlining: […]

[3] = tested on: HIA DQβ1 0302 allele in BSM cells; experiment: Sequence-specific alkylation of a gene in cultured human cells (cell culture crosslinking, LM-PCR); format: cell-based
exact complement = experiment: Tm of 8-mer oligonucleotides with varying A + T content, with and without MGB (Table 11); format: binding; details: MGB-conjugated 8-mer hybridized with its exact complement
Description: Short oligonucleotides of differing A+T content, conjugated to a MGB, were used to investigate the effect of base composition on Tm for MGB-short oligonucleotide conjugates (Table 11). Tms were determined on a Perkin Elmer) λ2S UV/VIS spectrophotometer, equipped with a PTP-6 temperature controller, using the PECSS software package.

[4] = tested on: long single stranded DNA template; experiment: Primer extension experiment (blockage of T7 DNA polymerase by ODN); format: biochemical; details: template 5×10^−10 M, primer 4×10^−8 M, blocking ODN 10^−9 M; 15 min at 45° C.; denaturing gel
Description: In this experiment, primer extension occurs with the enzyme T7 DNA polymerase that works from the 5′ end of a template strand. A 16-mer ODN-MGB which was complementary in the Watson Crick sense to a target sequence on the template strand was incubated with a long single stranded DNA template and the T7 DNA polymerase enzyme. […] The minor groove binder was the pyrroloindole tripeptide shown in this application in Table 5. When there was a single mismatch in the sequence specificity of the 16-mer to the target, primer extension was not blocked. Primer extension Was also not blocked when the minor groove binder moiety was attached to the 3′ end of the 16-mer. Primer extension was also not blocked when the sequence specific 16-mer and the free minor groove binder molecule (Compound 3d, not covalently attached to the ODN) was incubated with the template and the enzyme. […] (See Nucleic Acid Research (1993) 21: 5332-5336).
Primer extension reactions were performed as previously described by Lee, et al., (1994) Biochemistry 33: 6024-6030. The final concentrations of template, primer and blocking ODMs were 5×10^−10 M, 4×10^−8 M and 10^−9 M, respectively. Primer extension was carried out for 15 min at 45° C. and the products were analyzed by denaturing gel electrophoresis as described in the reference. […]

Row | Substance | Tm [1] | other results
1 | 1 (DNA ATAAAACAGAGGTGAG; DNA, backbone not given here) [compound 1] | 45 °C | –
2 | 2 (DNA ATAAAACAGAGG; DNA, backbone not given here) [compound 2] | 39 °C | –
3 | 3 (DNA ATAAAACAGA; DNA, backbone not given here) [compound 3] | 24 °C | –
4 | 4 (DNA TAATAACGTTCGGGCA; DNA, backbone not given here) [compound 4] | 50 °C | –
5 | 5 (DNA ATAACG; DNA, backbone not given here) [compound 5] | 16 °C | –
6 | 5'-GGGTTCCCGAGCGGC (chemistry not fully specified) [MGB-conjugated 15-mer, 5′-fluorescein, 3′-TAMRA and CDPI3 probe, all guanine residues replaced by ppG] | – | generation of signal with single-base mismatch [2]: completely suppressed; level of signal with perfect match [2]: no effect on the level of signal
7 | 5′-GGTTATTTTTGAAGATACGAATTTCUCCAGAGACACAGCAGGATTTGTCA-CDPI3 [CDPI3-containing 50-mer] | – | alkylation of the targeted site ([3]; 1-50 μM, […], LM-PCR, sequencing gel): had bound to and alkylated the targeted site; efficiency of sequence specific alkylation of the 0302 allele versus the same ODN without the MGB ([3]; […] at 37° C.): 10 fold
8 | 5′-MGB-CAATAATA: 8-mer MGB-oligonucleotide conjugate | – | Tm + MGB (exact complement): 45 °C
9 | 8 (DNA CGGGCAAA; DNA, backbone not given here) [compound 8] | 25 °C | –
10 | 9 (DNA CGGGCAAAGGATTTAA; DNA, backbone not given here) [compound 9] | 47 °C | –
11 | 10 (DNA GGCAAA; DNA, backbone not given here) [compound 10] | <17 °C | –
12 | 11 (DNA CGGCTCTA; DNA, backbone not given here) [compound 11] | 23 °C | –
13 | 12 (DNA CGGCTCTAATCTATTA; DNA, backbone not given here) [compound 12] | 43 °C | –
14 | 13 (DNA TATTTTAGATAACCTT; DNA, backbone not given here) [compound 13] | 34 °C | –
15 | [3-carbamoyl-1,2-dihydro-3H-pyrrolo[3,2-e]indole-7-carbox]-1-amido-3-propanol Trmer [Compound 3d] | – | blockage of primer extension by T7 DNA polymerase [4]: not blocked
